Series [1] concerns the target T1, Phosphofructokinase (PFK), purified from rabbit skeletal muscle (Oryctolagus cuniculus, UniProt P00511).
T1 construct: gene PFKM
T1 sequence (P00511 2-780): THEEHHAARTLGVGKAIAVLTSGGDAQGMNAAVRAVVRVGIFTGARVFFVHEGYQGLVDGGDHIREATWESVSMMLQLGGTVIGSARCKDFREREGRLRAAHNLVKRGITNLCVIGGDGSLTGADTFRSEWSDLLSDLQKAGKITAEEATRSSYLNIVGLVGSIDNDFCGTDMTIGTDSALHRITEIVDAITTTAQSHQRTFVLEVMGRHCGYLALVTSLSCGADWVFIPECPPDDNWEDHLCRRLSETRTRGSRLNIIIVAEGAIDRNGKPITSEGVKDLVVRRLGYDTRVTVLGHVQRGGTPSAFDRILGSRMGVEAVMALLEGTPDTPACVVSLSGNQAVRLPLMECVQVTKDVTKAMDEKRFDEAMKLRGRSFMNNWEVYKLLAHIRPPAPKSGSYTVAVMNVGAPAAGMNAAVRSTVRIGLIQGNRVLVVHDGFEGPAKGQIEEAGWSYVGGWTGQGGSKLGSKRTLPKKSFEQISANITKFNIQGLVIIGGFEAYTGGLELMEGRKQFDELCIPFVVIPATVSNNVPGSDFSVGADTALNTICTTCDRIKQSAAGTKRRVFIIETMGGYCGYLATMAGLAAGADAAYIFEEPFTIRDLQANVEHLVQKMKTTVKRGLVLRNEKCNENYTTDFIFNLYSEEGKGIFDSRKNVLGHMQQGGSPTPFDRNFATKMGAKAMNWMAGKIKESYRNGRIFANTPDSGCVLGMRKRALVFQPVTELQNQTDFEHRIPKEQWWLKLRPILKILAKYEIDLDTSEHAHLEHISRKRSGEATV
As to the kind of experiment: radiometric assay of purified PFK ([γ-32P]ATP); supported by intrinsic fluorescence center-of-mass shift (tetramer to dimer). Type of series: biochemical.

Series [2] deals with the molecule itself. As to the kind of experiment: intrinsic fluorescence spectra (center of mass); purified PFK incubated 1 h with 0, 25, 50, 100 and 200 uM EGCG; conditions as for the radioassay (50 mM Tris-HCl pH 7.4, 5 mM MgCl2, 5 mM (NH4)2SO4, 1 mM F6P, 1 mM ATP, 1 mg/ml purified PFK); excitation 280 nm, emission 300-400 nm; tetramer to dimers.

The IC50 is the concentration at which inhibition is half-maximal. What is called stoichiometry N is a count of units in the complex or per binding partner.

For `O=C(O[C@@H]1Cc2c(O)cc(O)cc2O[C@@H]1c1cc(O)c(O)c(O)c1)c1cc(O)c(O)c(O)c1` [EGCG, epigallocatechin-3-gallate], in series [1], the IC50 came out at 124 µM.

B1: Phosphofructokinase (PFK) purified from rabbit skeletal muscle (enzyme, UniProt P00511 1-780, looked up)
chain: MTHEEHHAARTLGVGKAIAVLTSGGDAQGMNAAVRAVVRVGIFTGARVFFVHEGYQGLVDGGDHIREATWESVSMMLQLGGTVIGSARCKDFREREGRLRAAHNLVKRGITNLCVIGGDGSLTGADTFRSEWSDLLSDLQKAGKITAEEATRSSYLNIVGLVGSIDNDFCGTDMTIGTDSALHRITEIVDAITTTAQSHQRTFVLEVMGRHCGYLALVTSLSCGADWVFIPECPPDDNWEDHLCRRLSETRTRGSRLNIIIVAEGAIDRNGKPITSEGVKDLVVRRLGYDTRVTVLGHVQRGGTPSAFDRILGSRMGVEAVMALLEGTPDTPACVVSLSGNQAVRLPLMECVQVTKDVTKAMDEKRFDEAMKLRGRSFMNNWEVYKLLAHIRPPAPKSGSYTVAVMNVGAPAAGMNAAVRSTVRIGLIQGNRVLVVHDGFEGPAKGQIEEAGWSYVGGWTGQGGSKLGSKRTLPKKSFEQISANITKFNIQGLVIIGGFEAYTGGLELMEGRKQFDELCIPFVVIPATVSNNVPGSDFSVGADTALNTICTTCDRIKQSAAGTKRRVFIIETMGGYCGYLATMAGLAAGADAAYIFEEPFTIRDLQANVEHLVQKMKTTVKRGLVLRNEKCNENYTTDFIFNLYSEEGKGIFDSRKNVLGHMQQGGSPTPFDRNFATKMGAKAMNWMAGKIKESYRNGRIFANTPDSGCVLGMRKRALVFQPVTELQNQTDFEHRIPKEQWWLKLRPILKILAKYEIDLDTSEHAHLEHISRKRSGEATV
notes: Phosphofructokinase from rabbit skeletal muscle (muscle-type ATP-dependent 6-phosphofructokinase); no identifier or residues printed; The number of copies therefore depends on the condition; also called purified PFK; PFK1; source: purified from rabbit skeletal muscle
On to B1, for which the “stoichiometry N” value in series [2] was determined as 2.

Source of the values: PMC4923908, “In vitro and in vivo study of epigallocatechin-3-gallate-induced apoptosis in aerobic glycolytic hepatocellular carcinoma cells involving inhibition of phosphofructokinase activity” (Scientific Reports, 2016).
